What follows are compounds tested on 786-O (renal cell carcinoma) cells (assay: Cell viability (CellTiter Glo) assay, inhibition of 786-O cell proliferation). Conditions: 786-O cells, 72 hours, CellTiter Glo; read-out: IC50, inhibition of 786-O cell proliferation.
Assay type: cell-based

| Structure (SMILES) | IC50 [nM] |
| --- | --- |
| CNc1nc([C@@H](C)OC(=N)N2CCC[C@@H]2C(F)(F)F)nc2c1C(C)(C)C(=O)N2c1ccc(N2CCOCC2)cc1 [Compound E181] | > 5000 |
| CNc1nc([C@H](C)OC(=N)N2CCC[C@@H]2C(F)(F)F)nc2c1C(C)(C)C(=O)N2c1ccc(N2CCOCC2)cc1 [Compound E180] | > 5000 |
| CNc1nc(COC(=N)N2CCCC2C(F)(F)F)nc2c1C(C)(C)C(=O)N2c1ccc2c(c1)CCCO2 (stereo not shown) [Compound E182] | < 100 |

Same assay, conditions: Homo sapiens, 786-0, 72 h, read-out: IC50, inhibition of 786-O cell proliferation

| Structure (SMILES) | IC50 [nM] |
| --- | --- |
| CNc1nc(COC(=N)N2CCCC2C(F)(F)F)nc2c1C(C)(C)C(=O)N2c1ccccc1Oc1ccccc1F (stereo not shown) [Compound E29] | < 100 |
| CC(C)Nc1nc(COC(=N)N2CCC[C@@H]2C(F)(F)F)nc2c1C1(CCCC1)C(=O)N2c1ccc(F)c(F)c1 [Compound E212] | < 100 |
| CN1CCN=C1OCc1ncc2c(n1)N(c1ccc(Oc3ccccc3)cc1)CC2(C)C [Compound E140] | 500 to 5000 |
| N=C(OCc1nc(N)nc(Nc2ccc(Oc3ccccc3)cc2)n1)N1CCCCO1 [Compound F43] | 100 to 500 |
| C[C@@H]1CN(c2ccc(N3C(=O)C4(CCCC4)c4c(N)nc(COC(=N)N5CCC[C@@H]5C(F)(F)F)nc43)cn2)C[C@H](C)O1 [Compound E46] | < 100 |
| CC(C)N(CC(F)(F)F)C(=N)OCc1ncc2c(n1)N(c1ccc(Oc3ccccc3)cc1)CCO2 [Compound E125] | 500 to 5000 |

Same assay, conditions: Homo sapiens, 786-0; 786-O cells, 72 hours, CellTiter Glo; read-out: IC50, inhibition of 786-O cell proliferation

| IC50 [nM] | Structure (SMILES) |
| --- | --- |
| 500 to 5000 | N=C(OCc1nc(C(F)F)c2c(n1)N(c1ccc(N3CCOCC3)cc1)C(=O)C21CCCC1)N1CCC[C@@H]1C(F)(F)F [Compound E199] |
| < 100 | N=C(OCc1nc(NC2CC2)c2c(n1)N(c1ccc(N3CCOCC3)c(F)c1)C(=O)C21CCCC1)N1CCC[C@@H]1C(F)(F)F [Compound E198] |
| < 100 | CNc1nc(COC(=N)N2CCC[C@@H]2C(F)(F)F)nc2c1C(C)(C)C(=O)N2c1ccc2c(c1)CCO2 [Compound E68] |
| < 100 | CC1(C)C(=O)N(c2ccc(N3CCOCC3)cc2)c2nc(COC(=N)N3CCC[C@@H]3C(F)(F)F)nc(NCC(F)(F)F)c21 [Compound E48] |
| < 100 | CNc1nc(COC(=N)N2CCCCC2C(F)(F)F)nc2c(-c3ccc(N4CCOCC4)cc3OC)csc12 (stereo not shown) [Compound E171] |
| < 100 | N=C(OCc1nc(N)c2c(n1)N(c1cnc(N3CC(F)(F)C3)nc1)C(=O)C21CCCC1)N1CCC[C@@H]1C(F)(F)F [Compound E85] |
| < 100 | CCN(C(=N)OCc1nc(N)nc(Nc2ccc(Oc3ccccc3)cc2)n1)c1ccccn1 [Compound F42] |
| 100 to 500 | CC(C)N(CC(F)(F)F)C(=N)OCc1ncc2c(n1)N(c1ccc(N3CCCCC3)nc1)C(=O)C21CC1 [Compound E150] |
| < 100 | CC1(C)CN(c2ccc(Oc3ccccc3)cc2)c2nc(COC(=N)N3CCCCC3C(F)(F)F)ncc21 (stereo not shown) [Compound E10] |
| < 100 | CC(C)Nc1nc(COC(=N)N2CCC[C@@H]2C(F)(F)F)nc2c1C1(CCCC1)C(=O)N2c1cnc(N2CCC(F)(F)C2)nc1 [Compound E81] |
| < 100 | N=C(OCc1nc(NC2CC2)c2c(n1)N(c1cnc(N3CCC(F)(F)CC3)nc1)C(=O)C21CCCC1)N1CCC[C@@H]1C(F)(F)F [Compound E112] |
| 500 to 5000 | CC(C)N(CC(F)(F)F)C(=N)OCc1ncc2c(n1)N(c1ccc(N3CCOCC3)nc1)C(=O)C21CC1 [Compound E149] |
| < 100 | CC1(C)C(=O)N(c2ccc(N3CCCCC3)cc2)c2nc(COC(=N)N3CCC[C@@H]3C(F)(F)F)nc(NCC(F)(F)F)c21 [Compound E49] |
| < 100 | N=C(OCc1nc(NC2CC2)c2c(n1)N(c1cc(F)c3c(c1)CCO3)C(=O)C21CCCCC1)N1CCC[C@@H]1C(F)(F)F [Compound E55] |
| > 5000 | CC(C)N(CC(F)(F)F)C(=N)OCc1ncc2c(n1)N(c1ccc(N3CCOCC3)nc1)C(=O)CC2 [Compound E148, 1-isopropyl-2-[[8-(6-morpholino-3-pyridyl)-7-oxo-5,6-dihydropyrido[2,3-d]pyrimidin-2-yl]methyl]-1-(2,2,2-trifluoroethyl)isourea] |
| < 100 | N=C(OCc1nc(NC2CC2)c2c(n1)N(c1ccc(N3CCOCC3)cc1)C(=O)C21CCCC1)N1CCC[C@@H]1C(F)(F)F [Compound E53, (4′-(cyclopropylamino)-7′-(4-morpholinophenyl)-6′-oxo-6′,7′-dihydrospiro[cyclopentane-1,5′-pyrrolo[2,3-d]pyrimidin]-2′-yl)methyl (R)-2-(trifluoromethyl)pyrrolidine-1-carbimidate] |
| 100 to 500 | CS(=O)(=O)c1ccc(N2C(=O)C3(CCCC3)c3c(N)nc(COC(=N)N4CCC[C@@H]4C(F)(F)F)nc32)cc1 [Compound E213] |
| < 100 | N=C(OCc1nc(N)c2c(n1)N(c1cnc(N3CCOCC3)nc1)C(=O)C21CCCC1)N1CCC[C@@H]1C(F)(F)F [Compound E78] |
| 100 to 500 | CNc1nc(COC(=N)N2CCC[C@@H]2C(F)(F)F)nc2c1C1(CCCC1)C(=O)N2c1cnc(C2CC(C)(C)OC(C)(C)C2)nc1 [Compound E102] |
| < 100 | N=C(OCc1nc(N)c2c(n1)N(c1cnc(N3CCC(F)(F)CC3)nc1)C(=O)C21CCCC1)N1CCC[C@@H]1C(F)(F)F [Compound E84] |
| < 100 | CCN(CC(F)(F)F)C(=N)OCc1nc(N)nc(Nc2ccc(Oc3ccccc3)cc2)n1 [Compound F45] |
| < 100 | C[C@@H]1CN(c2ccc(N3C(=O)C(C)(C)c4c(N)nc(COC(=N)N5CCC[C@@H]5C(F)(F)F)nc43)cn2)C[C@H](C)O1 [Compound E186, (4-amino-7-(6-((2S,6R)-2,6-dimethylmorpholino)pyridin-3-yl)-5,5-dimethyl-6-oxo-6,7-dihydro-5H-pyrrolo[2,3-d]pyrimidin-2-yl)methyl (R)-2-(trifluoromethyl)pyrrolidine-1-carbimidate] |
| < 100 | C[C@@H]1CN(c2ccc(N3C(=O)C4(CCCC4)c4c(NCC(F)(F)F)nc(COC(=N)N5CCC[C@@H]5C(F)(F)F)nc43)cn2)C[C@H](C)O1 [Compound E44] |
| < 100 | N=C(OCc1nc(N)c2c(n1)N(c1cnc(N3CCC(F)(F)C3)nc1)C(=O)C21CCCC1)N1CCC[C@@H]1C(F)(F)F [Compound E82] |
| 100 to 500 | CC(C)N(CC(F)(F)F)C(=N)OCc1ncc2c(n1)N(c1ccc(OC3CCCCC3)nc1)C(=O)C21CC1 [Compound E13] |

Continued, compound first:

| Structure (SMILES) | IC50 [nM] |
| --- | --- |
| CC1(C)C(=O)N(c2cnc(C3CCOCC3)nc2)c2nc(COC(=N)N3CCC[C@@H]3C(F)(F)F)nc(NC3CCC3)c21 [Compound E89] | 500 to 5000 |
| CC1(C)C(=O)N(c2ccc(N3CCOCC3)cc2)c2nc(COC(=N)N3CCC[C@@H]3C(F)(F)F)nc(N3CC(F)(F)C3)c21 [Compound E74] | 100 to 500 |
| CCN(CC(F)(F)F)C(=N)OCc1ncc2c(n1)N(c1ccc(Oc3ccccc3)cc1)CC2(C)C [Compound E9] | < 100 |
| CC(C)N(CC(F)(F)F)C(=N)OCc1ncc(C2CCOCC2)c(Nc2ccc(N3CCOCC3)nc2)n1 [Compound E124] | > 5000 |
| Cn1c(OCc2nc(N)nc(Nc3ccc(Oc4ccccc4)cc3)n2)nc(Br)c1Br [Compound F2] | > 5000 |
| CN(CC(F)(F)F)C(=N)OCc1ncc2c(n1)N(c1ccc(Oc3ccccc3)cc1)CC2(C)C [Compound E136] | < 100 |
| N=C(OCc1nc(NCC(F)(F)F)c2c(n1)N(c1cc(F)c3c(c1)CCO3)C(=O)C21CCCC1)N1CCC[C@@H]1C(F)(F)F [Compound E61] | < 100 |
| CCN(CC(F)(F)F)C(=N)OCc1nccc(Nc2ccc(N3CCOCC3)nc2)n1 [Compound F49] | 500 to 5000 |
| CNc1nc(COC(=N)N(CC(F)(F)F)C(C)C)nc2c1C(C)(C)C(=O)N2c1ccc(OC2CCCCC2)nc1 [Compound E168] | < 100 |
| CC1(C)CN(c2ccc(N3CCOCC3)cc2)c2nc(COC(=N)N3CCCC3C(F)(F)F)nc(N)c21 (stereo not shown) [Compound E18] | < 100 |
| CNc1nc(COC(=N)N2CCC(F)(F)CC2)nc2c1C(C)(C)CN2c1ccc(Oc2ccccc2)cc1 [Compound E7, (5,5-dimethyl-4-(methylamino)-7-(4-phenoxyphenyl)-6,7-dihydro-5H-pyrrolo[2,3-d]pyrimidin-2-yl)methyl 4,4-difluoropiperidine-1-carbimidate] | < 100 |
| CC1(C)C(=O)N(c2ccc(N3CCOCC3)cc2)c2nc(COC(=N)N3CC(F)C[C@H]3C(F)(F)F)nc(N)c21 (stereo partly shown) [Compound E52] | 100 to 500 |
| CNc1nc(COC(=N)N2CCC[C@H]2C(F)(F)F)nc2c1C(C)(C)C(=O)N2c1ccc(N2C[C@@H](C)O[C@@H](C)C2)nc1 [Compound E183] | 100 to 500 |
| CC1(C)C(=O)N(c2ccc(N3CCOCC3)c(F)c2)c2nc(COC(=N)N3CCC[C@@H]3C(F)(F)F)nc(NC3CC3)c21 [Compound E200] | < 100 |
| C[C@@H]1C[C@H](C)CN(c2ccc(N3C(=O)C(C)(C)c4c(NCC(F)(F)F)nc(COC(=N)N5CCC[C@@H]5C(F)(F)F)nc43)cc2F)C1 [Compound E43] | < 100 |
| CC(C)N(CC(F)(F)F)C(=N)OCc1ncc2c(n1)N(c1ccc(OC3CCOCC3)cc1)CC21CC1 [Compound E145] | 100 to 500 |
| CNc1nc(COC(=N)N2CCC[C@@H]2C(F)(F)F)nc2c1C(C)(C)C(=O)N2c1cnc(N2C[C@@H](C)O[C@@H](C)C2)c(F)c1 [Compound E36] | < 100 |
| CNc1nc(COC(=N)N2CC(F)(F)C[C@H]2C)nc2c1C(C)(C)C(=O)N2c1ccc(N2C[C@@H](C)O[C@@H](C)C2)nc1 [Compound E115] | 100 to 500 |
| CCCCCCOc1ccc(N2C(=O)C3(CC3)c3cnc(COC(=N)N(CC(F)(F)F)C(C)C)nc32)cc1 [Compound E164] | < 100 |
| N=C(OCc1nc(N)nc(Nc2ccc(Oc3ccccc3)cc2)n1)N(CC(F)(F)F)C1CCOCC1 [Compound F51] | < 100 |
| CNc1nc(COC(=N)N2CCC[C@@H]2C(F)(F)F)nc2c1C(C)(C)C(=O)N2c1cnc2c(C(C)C)cnn2c1 [Compound E67] | < 100 |
| CCC(CC)Oc1ccc(N2CC(C)(C)c3cnc(COC(=N)N(CC(F)(F)F)C(C)C)nc32)nc1 [Compound E128] | 100 to 500 |
| CCN(CC)c1ncc(N2C(=O)C3(CCCC3)c3c(NC(C)C)nc(COC(=N)N4CCC[C@@H]4C(F)(F)F)nc32)cn1 [Compound E76] | 100 to 500 |
| CCN(CC(F)(F)F)C(=N)OCc1ncc(C#N)c(Nc2ccc(Oc3ccccc3)cc2)n1 [Compound F50] | 500 to 5000 |
